Data as given in US20110301162A1, “AURORA KINASE MODULATORS AND METHODS OF USE” (AMGEN INC., priority 2008, published 2011).

How the values were obtained:
[1] = biological target: T1, AuroraB (Homo sapiens, UniProt Q96GD4); assay: AuroraB Homogeneous Time Resolved Fluorescent (HTRF) kinase assay; format: biochemical; settings: average; ATP 23 μM; read-out: AurB_IC50_IP (uM Avg)
T1 construct: 20 μL of AuroraB FL His; His
Experimental: The AuroraB HTRF assay begins with AuroraB in the presence of ATP phosphorylating the biotinylated peptide Histone H3. The reaction incubates for about 90 min. the reaction is quentched by addition of detection reagents, which stop the reaction by diluting out the enzyme and chelating the metals due to the presence of EDTA. After addition, the assay is incubated for about 60 min to allow detection reagents to equilibrate.
The AuroraB HTRF assay comprises 1 μL of compound in 100% DMSO, 20 μL of ATP and biotinylated Histone H3, and 20 μL of AuroraB FL His for a final volume of 41 μL. The final concentration of Histone H3 is 0.1 μM. The final concentration of ATP is 23 μM (Km(app)=23 μM+/−2.6) and the final concentration of AuroraB is 400 pM. Buffer conditions are as follows: 50 mM HEPES pH 7.5, 5 mM NaCl, 0.5 mM MgCl, 0.5 mM MnCl, 2 mM DTT, 0.05% BSA.
(§1) The assay is quenched and stopped with 160 μL of detection reagent. Detection reagents are as follows: Buffer made of 50 mM Tris, pH 7.5, 100 mM NaCl, 3 mM EDTA, 0.05% BSA, 0.1% Tween20. Added to this buffer prior to reading is Steptavidin allophycocyanin (SA-APC) at a final conc in the assay of 0.001 mg/mL, and europilated anti-phosphoHistoneH3 Ab (Eu-anti-HisH3) at a final conc of 0.064 nM.
(§2) The assay plate is read in either a Discovery or a RubyStar. The eu-anti-HisH3 is excited at 320 nm and emits at 615 nm to excite the SA-APC which in turn emits at 655 nm. The ratio of SA-APC at 655 nm (excited due to close proximity to the Eu-anti-HisH3 because of phosphorylation of the peptide) to free Eu-anti-HisH3 at 615 nm will give substrate phosphorylation.
Many of the Examples described herein were tested, and fund to be active compounds. Table I includes related biological data, which may be interpreted using the activity gauge below.

[2] = tested on: HeLa cells; assay: HeLa cell 24 hr ploidy assay; format: cell-based; settings: Homo sapiens, 24 hrs treatment, DNA ploidy, average, read-out: 24h_4N Ploidy EC50_IP (uM Avg)
Experimental: The purpose of this assay is to evaluate the ability of selected individual compounds to induce Deoxyribonucleic acid (DNA) content (ploidy) in cells through failed cell division. Cell cycle analysis is a rapid and efficient way to evaluate the status of DNA content (ploidy) of a given cell. HeLa cells (1×10^4 HeLa cells/well) in 100 ul of media (MEM+10% FBS) were plated in 96-well plates (Packard View) and cultured for 24 hrs at 37° C. maintained in a 5% CO2 atmosphere. The following day, cells were treated for 24 hrs with inhibitor compounds (10 pt. Dose ranging from 0.0024-1.25 umol/L). The compounds were serially diluted in DMSO (0.25% final concentration). The cells were fixed (3.7% Formaldehyde and 1% glutaraldehyde) and permeabilized (1×PBS with 1% BSA an d0.2% Triton X-100) in preparation for nuclear staining. The well plates were stained for 45 minutes at RT in the dark using Hoechest 33342 nuclear stain at 0.5 ug.ml (Stock of 10 mg/ml, Invitrogen, Calif., Cat #H3570). The nuclear stain was removed by aspiration and the cells were washed with wash buffer. A Cellomics Array Scan Vti plate reader was used to acquire the DNA ploidy data of the cells using Cell Cycle bioapplication. Numbers for each of “valid cell count/well”, “% of 4N cells” and “% of >4Ncells” were calculated with the assistance of an Activity Base 5.1ca software and dose curves were generated using an XLFit software. With XLFit, final EC50 IP and EC50 transit values, as well as the Max and Min, were calculated for each curve.

[3] = biological target: T2, AuroraA-TPX2 (Homo sapiens, UniProt O14965); assay: AuroraA-TPX2 Homogeneous Time Resolved Fluorescent (HTRF) kinase assay; format: biochemical; settings: average; ATP about 1 μM; read-out: AurA_IC50_IP (uM Avg)
T2 construct: 20 μL of AuroraA-TPX2 KD GST; GST
T2 sequence (O14965 133-383 limits assumed): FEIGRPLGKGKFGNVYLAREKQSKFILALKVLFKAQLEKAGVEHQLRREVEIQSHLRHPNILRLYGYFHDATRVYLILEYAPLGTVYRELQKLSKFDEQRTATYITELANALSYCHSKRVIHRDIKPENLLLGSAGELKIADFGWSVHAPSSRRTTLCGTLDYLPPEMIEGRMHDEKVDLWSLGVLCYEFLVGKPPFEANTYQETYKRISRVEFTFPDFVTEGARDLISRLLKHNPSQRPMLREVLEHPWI
T2 sequence (Q9ULW0 1-43 partner limits assumed): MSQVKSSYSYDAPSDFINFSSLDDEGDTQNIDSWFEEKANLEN
Experimental: The Aurora-A HTRF assay begins with Aurora-A in the presence of ATP phosphorylating the biotinylated peptide PLK. The reaction incubates for about 120 min. Detection reagents are added to quench the reaction. These agents stop the reaction by diluting out the enzyme and chelating the metals due to the presence of EDTA. After addition, the assay is incubated overnight to allow the detection reagents to equilibrate.
The AuroraA HTRF assay comprises 1 μL of compound in 100% DMSO, 20 μL of ATP and biotinylated PLK, and 20 μL of AuroraA-TPX2 KD GST for a final volume of about 41 μL. The final concentration of PLK is about 1 μM. The final concentration of ATP is about 1 μM (Km(app)=1 μM+/−0.1) and the final concentration of AuroraA is about 5 nM. Buffer conditions are as follows: 60 mM HEPES pH 7.5, 25mM NaCl, 10 mM MgCl, 2 mM DTT, 0.05% BSA.
as §1, with “0.0005” for “0.001”, “anti-phosphoPLK” for “anti-phosphoHistoneH3”, “(Eu-anti-PLK)” for “(Eu-anti-HisH3)”, “0.02” for “0.064”
as §2, with “eu-anti-PLK” for “eu-anti-HisH3”, “Eu-anti-PLK” for “Eu-anti-HisH3”
Many of the Examples described herein were tested and found to be active compounds. Table I includes related biological data, which may be interpreted using the activity gauge below.

T1 sequence (Q96GD4 whole entry): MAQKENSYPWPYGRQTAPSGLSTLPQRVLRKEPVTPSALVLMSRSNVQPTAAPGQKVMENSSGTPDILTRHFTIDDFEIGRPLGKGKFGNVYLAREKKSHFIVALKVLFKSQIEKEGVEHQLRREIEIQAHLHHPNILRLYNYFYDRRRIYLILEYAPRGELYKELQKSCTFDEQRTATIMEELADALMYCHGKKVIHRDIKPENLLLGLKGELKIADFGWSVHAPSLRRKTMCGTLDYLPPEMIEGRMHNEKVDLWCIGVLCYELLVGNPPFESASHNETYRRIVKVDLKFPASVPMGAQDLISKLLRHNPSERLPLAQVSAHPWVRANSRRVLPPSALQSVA

SMILES | IC50 [1] [µM] | EC50 [2] [µM] | IC50 [3] [µM]
Cc1csc(-c2nnc(Nc3ccc(Sc4ccnc(-c5cc6ccccc6[nH]5)n4)cc3)c3ccccc23)c1 [Example 37, N-(4-((2-(1H-indol-2-yl)-4-pyrimidinyl)sulfanyl)phenyl)-4-(4-methyl-2-thiophenyl)-1-phthalazinamine] | < 0.1 | < 0.1 | < 0.1
Nc1cc(Sc2ccc(Nc3nnc(-c4ccc(Cl)cc4)c4ccccc34)cc2)ccn1 [Example 27, N-(4-((2-amino-4-pyridinyl)thio)phenyl)-4-(4-chlorophenyl)-1-phthalazinamine] | < 0.1 | 0.1 to 0.5 | 0.1 to 0.5
OCCNc1nccc(Sc2ccc(Nc3nnc(-c4ccccc4)c4ccccc34)cc2)n1 [Example 31, 2-((4-((4-((4-phenyl-1-phthalazinyl)amino)phenyl)sulfanyl)-2-pyrimidinyl)amino)ethanol] | < 0.1 | 0.1 to 0.5 | 0.1 to 0.5
CNCCNc1nccc(Sc2ccc(Nc3nnc(-c4ccccc4)c4ccccc34)cc2)n1 [Example 33, N-methyl-N′-(4-((4-((4-phenyl-1-phthalazinyl)amino)phenyl)sulfanyl)-2-pyrimidinyl)-1,2-ethanediamine] | 1 to 5 | 1 to 5 | 
Clc1ccc(-c2nnc(Nc3ccc(Oc4ccnc(/C=C/c5ccccc5)n4)cc3)c3ccccc23)cc1 [Example 30, 4-(4-chlorophenyl)-N-(4-((2-((E)-2-phenylethenyl)-4-pyrimidinyl)oxy)phenyl)-1-phthalazinamine] | < 0.1 | 0.1 to 0.5 | 0.1 to 0.5
OCCNc1nccc(Sc2ccc(Nc3nnc(-c4ccc(Cl)cc4)c4ccccc34)cc2)n1 [Example 32, 2-((4-((4-((4-(4-chlorophenyl)-1-phthalazinyl)amino)phenyl)sulfanyl)-2-pyrimidinyl)amino)ethanol] | < 0.1 | < 0.1 | < 0.1
Clc1ccc(-c2nnc(Nc3ccc(Sc4ccnc(-c5cc6ccccc6[nH]5)n4)cc3)c3ccccc23)cc1 [Example 36, 4-(4-chlorophenyl)-N-(4-((2-(1H-indol-2-yl)-4-pyrimidinyl)sulfanyl)phenyl)-1-phthalazinamine] | < 0.1 | < 0.1 | < 0.1
CNC(=O)c1cc(Oc2ccc(Nc3nnc(-c4ccc(Cl)cc4)c4ccccc34)cc2)ccn1 [Example 26, 4-((4-((4-(4-chlorophenyl)-1-phthalazinyl)amino)phenyl)oxy)-N-methyl-2-pyridinecarboxamide] | 0.1 to 0.5 | 0.1 to 0.5 | 0.1 to 0.5
Clc1ccc(-c2nnc(Nc3ccc(Sc4ccnc(/C=C/c5ccccc5)n4)cc3)c3ccccc23)cc1 [Example 35, 4-(4-chlorophenyl)-N-(4-((2-((E)-2-phenylethenyl)-4-pyrimidinyl)sulfanyl)phenyl)-1-phthalazinamine] | < 0.1 | < 0.1 | 0.1 to 0.5
Clc1ccc(-c2nnc(Nc3ccc(Oc4ccnc(-c5nc6ccccc6[nH]5)c4)cc3)c3ccccc23)cc1 [Example 38, N-(4-((2-(1H-benzimidazol-2-yl)-4-pyridinyl)oxy)phenyl)-4-(4-chlorophenyl)-1-phthalazinamine] | < 0.1 | < 0.1 | 0.1 to 0.5
CS(=O)(=O)CCNc1cc(Oc2ccc(Nc3nnc(-c4ccc(Cl)cc4)c4ccccc34)cc2)ccn1 [Example 29, 4-(4-chlorophenyl)-N-(4-((2-((2-(methylsulfonyl)ethyl)amino)-4-pyridinyl)oxy)phenyl)-1-phthalazinamine] | 0.1 to 0.5 | 1 to 5 | 0.1 to 0.5

Second part, the compound after the results:

IC50 [1] [µM] | EC50 [2] [µM] | IC50 [3] [µM] | SMILES
0.1 to 0.5 | 1 to 5 |  | c1ccc(-c2nnc(Nc3ccc(Sc4ccnc(-c5cc6ccccc6[nH]5)n4)cc3)c3ccccc23)cc1 [Example 42, N-(4-((2-(1H-indol-2-yl)-4-pyrimidinyl)sulfanyl)phenyl)-4-phenyl-1-phthalazinamine]
< 0.1 |  | 0.1 to 0.5 | Cc1ccc(-c2nnc(Nc3ccc(Sc4ccnc(-c5cc6ccccc6[nH]5)n4)cc3)c3ccccc23)cc1N [Example 41, 4-(3-amino-4-methylphenyl)-N-(4-((2-(1H-indol-2-yl)-4-pyrimidinyl)sulfanyl)phenyl)-1-phthalazinamine]
< 0.1 | 0.1 to 0.5 | 0.1 to 0.5 | O=C(Nc1cc(Oc2ccc(Nc3nnc(-c4ccccc4)c4ccccc34)cc2F)ccn1)N1CCOCC1 [Example 44, N-(4-((2-fluoro-4-((4-phenyl-1-phthalazinyl)amino)phenyl)oxy)-2-pyridinyl)-4-morpholinecarboxamide]
1 to 5 | 0.1 to 0.5 |  | CSc1nccc(Oc2ccc(Nc3nnc(-c4ccccc4)c4ccccc34)cc2)n1 [Example 43, N-(4-((2-(methylthio)-4-pyrimidinyl)oxy)phenyl)-4-phenyl-1-phthalazinamine]
< 0.1 | 0.1 to 0.5 | 0.1 to 0.5 | Cc1ccc(-c2nnc(Nc3ccc(Sc4ccnc(-c5cc6ccccc6[nH]5)n4)cc3)c3ccccc23)cn1 [Example 39, N-(4-((2-(1H-indol-2-yl)-4-pyrimidinyl)sulfanyl)phenyl)-4-(6-methyl-3-pyridinyl)-1-phthalazinamine]
< 0.1 |  | 0.1 to 0.5 | Clc1ccc(-c2nnc(Nc3ccc(Oc4ccnc(/C=C/c5ccccc5)c4)cc3)c3ccccc23)cc1 [Example 40, 4-(4-chlorophenyl)-N-(4-((2-((E)-2-phenylethenyl)-4-pyridinyl)oxy)phenyl)-1-phthalazinamine]
